Key:
Type in all cases: cell-based
Panc10.05-G12D = assay: Viability assay (CellTiterBlue, 72 hr) Panc10.05; details: Homo sapiens, Panc1005, GI50, CellTiterBlue, Panc10.05 K-Ras G12D, read-out: 72 hr Cell Viability Panc10.05 (G12D)
Summary of the method: (§1)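 1000 cells/well, 18 hr pre-incubation at 37 °C; compound added from DMSO stock, 0.5% DMSO final; 72 hr; CellTiterBlue 3 hr, fluorescence Ex550/Em590; GI50 normalized to DMSO = 100%, 100 uM tamoxifen = 0% viability.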

HCT116-G31D = assay: Viability assay (CellTiterBlue, 72 hr) HCT116; details: Homo sapiens, HCT-116, GI50, CellTiterBlue, HCT116 K-Ras G13D, read-out: 72 hr Cell Viability HCT116 (G13D)
Summary of the method: as §1

[1] = test system: U87-MG (K-Ras wild type cell line); assay: Viability assay (CellTiterBlue, 72 hr) U87-MG; details: Homo sapiens, U-87 MG, GI50, CellTiterBlue, U87-MG K-Ras wild-type
Summary of the method: as §1

[2] = test system: phospho-Akt in Panc10.05 (G12D); assay: In-Cell Western phospho-Akt, Panc10.05; details: Homo sapiens, Panc1005, 1 h; Panc10.05, one hour treatment; read-out: In-Cell Western Panc10.05 (G12D) Akt (P)
Summary of the method: (§2)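 One-hour compound treatment of cells plated a day earlier, 0.5% DMSO. Phospho-signal detected by in-cell immunofluorescence imaging; EC50 calculated.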

K-Ras G12D = target: T1, K-Ras G12D (Homo sapiens, UniProt P01116, G12D); assay: G-LISA Ras activation, 293H cells transfected with G12D mutant; details: compound 1 hour
T1 construct: expressed in transfected cells; host or cells: 293H cells
T1 sequence (P01116 whole entry G12D): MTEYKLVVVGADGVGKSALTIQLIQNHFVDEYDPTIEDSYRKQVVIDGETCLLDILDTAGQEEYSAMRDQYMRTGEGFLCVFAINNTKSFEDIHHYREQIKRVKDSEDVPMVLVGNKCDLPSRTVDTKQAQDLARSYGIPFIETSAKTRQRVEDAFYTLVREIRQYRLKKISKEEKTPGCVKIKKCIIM
Summary of the method: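 293H cells transfected with 5 μg Ras wild-type or mutant plasmid (Lipofectamine 3000); next day treated with 3.125-25 μM compound for 1 h. Wild-type-transfected cells then stimulated with 100 ng/ml EGF for 2 min. Active Ras measured by G-LISA in ice-cold lysates.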

[3] = test system: phospho-ERK in A375 (Wild-type); assay: In-Cell Western phospho-ERK, A375; details: Homo sapiens, A-375, 1 h; A375, one hour treatment; read-out: In-Cell Western A375 (Wild-type) Erk (P)
Method: (§3) In-cell phosphorylation assays for Erk and Akt were performed on several of the compounds and exemplary results are shown in Table 3 below using HCC827 and A375 cell lines for wild type K-Ras and Panc1 and Panc10.05 cell lines for G12D K-Ras mutants. Results are expressed in μM and corresponding structures are shown in FIGS. 2A-2G and Examples 1-152, above.
(§4) Cells are seeded in complete medium into black sided, clear-bottom 384-well microplates at 3000 cells/[…]/well. Plates are returned to 37° C. CO2 incubator for 18 hr. Drug is made as 200× in DMSO and diluted into medium to 10×. To each well is added 4 ul 10× test article or controls, and plates are returned to the incubator. Final assay DMSO concentration is 0.5%. After one hour, cells are fixed in formaldehyde, rinsed & permeabilized with triton X-100, and blocked with BSA/Goat serum blocking solution. Primary phospho-Akt and phospho-ERK antibodies are added and plates are incubated overnight at 4° C. Plates are rinsed with Tween-20 wash buffer and secondary antibody (Goat anti-rabbit, Thermofisher) is added. After 2 hours, plates are rinsed in Tween-20 wash buffer, and then PBS. Plates are imaged on the Celigo (Nexcelom) and cellular fluorescence is quantitated. Full inhibition of phospho-Akt is achieved with 1 uM BEZ235 (Sellekchem), while full inhibition of phospho-ERK is achieved with 1 uM MEK Inhibitor II Calbiochem). EC50 values are calculated using Graphpad Prism.

[4] = test system: phospho-Akt in A375 (Wild-type); assay: In-Cell Western phospho-Akt, A375; details: Homo sapiens, A-375, 1 h; A375, one hour treatment; read-out: In-Cell Western A375 (Wild-type) Akt (P)
Method: as §3, §4

[5] = test system: phospho-ERK in Panc1 (G12D); assay: In-Cell Western phospho-ERK, Panc1; details: Homo sapiens, PANC-1, 1 h; Panc1, one hour treatment; read-out: In-Cell Western Panc1 (G12D) Erk (P)
Summary of the method: as §2

[6] = test system: HCC827 (K-Ras wild type cell line); assay: Viability assay (CellTiterBlue, 72 hr) HCC827; details: Homo sapiens, GI50, CellTiterBlue, HCC827 K-Ras wild-type
Summary of the method: as §1

Panc1-G12D = assay: Viability assay (CellTiterBlue, 72 hr) Panc1; details: Homo sapiens, PANC-1, GI50, CellTiterBlue, Panc1 K-Ras G12D, read-out: 72 hr Cell Viability Panc1 (G12D)
Summary of the method: as §1

[7] = test system: phospho-Akt in Panc1 (G12D); assay: In-Cell Western phospho-Akt, Panc1; details: Homo sapiens, PANC-1, 1 h; Panc1, one hour treatment; read-out: In-Cell Western Panc1 (G12D) Akt (P)
Summary of the method: as §2

[8] = test system: A375 (K-Ras wild type cell line); assay: Viability assay (CellTiterBlue, 72 hr) A375; details: Homo sapiens, A-375, GI50, CellTiterBlue
Method: Viability assays were performed on exemplary compounds and Table 2 below lists exemplary results for selected compounds tested on K-Ras wild type cell lines (Ishikawa, U87-MG, HCC827, and A375) and various K-Ras mutant cell lines (Panc1-G12D; Panc10.05-G12D; HCT116-G31D). Results are expressed in μM and corresponding structures are shown in FIGS. 2A-2G and Examples 1-152, above.
Cells are counted and seeded at 1000 cells/36 ul medium/well into 384-well microplates. Cells are returned to 37° C. CO2 incubator for 18 hr. Drug is made as 200× in DMSO and diluted into medium to 10×. To each well is added 4 ul 10× drug, and plates are returned to the incubator. Final assay DMSO concentration is 0.5%. After 72 hr, 8 ul CellTiterBlue (Promega) is added to each well. After 3 hr, fluorescence (Ex550/Em590) is determined on the Victor Plate Reader (Perkin Elmer). Assay range is determined by DMSO control (100% viability) and 100 uM tamoxifen (0% viability). GI50 values are calculated using Graphpad Prism.

[9] = test system: Ishikawa (K-Ras wild type cell line); assay: Viability assay (CellTiterBlue, 72 hr) Ishikawa; details: Homo sapiens, GI50, CellTiterBlue, Ishikawa K-Ras wild-type
Summary of the method: as §1

[10] = test system: phospho-ERK in Panc10.05 (G12D); assay: In-Cell Western phospho-ERK, Panc10.05; details: Homo sapiens, Panc1005, 1 h; Panc10.05, one hour treatment; read-out: In-Cell Western Panc10.05 (G12D) Erk (P)
Summary of the method: as §2

[11] = test system: phospho-ERK in HCC827 (Wild-type); assay: In-Cell Western phospho-ERK, HCC827; details: Homo sapiens, 1 h; HCC827, one hour treatment; read-out: In-Cell Western HCC827 (Wild-type) Erk (P)
Method: as §3, §4

SMILES	IC50 (Panc10.05-G12D)	IC50 (HCT116-G31D)	IC50 [1]	EC50 [2]	IC50 (K-Ras G12D)	EC50 [3]	EC50 [4]	EC50 [5]	IC50 [6]	IC50 (Panc1-G12D)	EC50 [7]	IC50 [8]	IC50 [9]	EC50 [10]	EC50 [11]
CCc1nc(C)c(C(=O)Nc2nc(-c3ccc4c(c3)CCC(=O)N4C(C)c3cccnc3)cs2)o1 (stereo not drawn) [Compound 102, 2-ethyl-4-methyl-N-(4-(2-oxo-1-(1-(pyridin-3-yl)ethyl)-1,2,3,4-tetrahydroquinolin-6-yl)thiazol-2-yl)oxazole-5-carboxamide]	5 µM	13 µM	> 25 µM	> 25 µM	8.2 µM	26 µM	> 25 µM	8 µM	> 25 µM	> 25 µM	> 25 µM	> 25 µM	> 25 µM	19 µM	11 µM
CCn1nccc1C(=O)Nc1nc(-c2ccc3c(c2)CCC(=O)N3)cs1 [Compound 46, 1-ethyl-N-(4-(2-oxo-1,2,3,4-tetrahydroquinolin-6-yl)thiazol-2-yl)-1H-pyrazole-5-carboxamide]	11 µM	> 25 µM	> 25 µM	13 µM	22.5 µM	> 25 µM	> 25 µM	> 25 µM	> 25 µM	> 25 µM	> 25 µM	> 25 µM	> 25 µM	11 µM	> 25 µM
Cn1nc(C(F)F)cc1C(=O)Nc1nc(-c2ccc3c(c2)CCC(=O)N3)cs1 [Compound 49, 3-(difluoromethyl)-1-methyl-N-(4-(2-oxo-1,2,3,4-tetrahydroquinolin-6-yl)thiazol-2-yl)-1H-pyrazole-5-carboxamide]	> 25 µM	> 25 µM	> 25 µM	20 µM	12.3 µM	> 25 µM	> 25 µM	> 25 µM	> 25 µM	> 25 µM	> 25 µM	> 25 µM	> 25 µM	19 µM	> 25 µM
Cc1nc(C)c(C(=O)Nc2nc(-c3ccc4c(c3)CCC(=O)N4CCC(=O)N(C)C)cs2)o1 [Compound 103, N-(4-(1-(3-(dimethylamino)-3-oxopropyl)-2-oxo-1,2,3,4-tetrahydroquinolin-6-yl)thiazol-2-yl)-2,4-dimethyloxazole-5-carboxamide]	5 µM	25 µM	> 25 µM	> 25 µM	14.9 µM	29 µM	> 25 µM	> 25 µM	> 25 µM	> 25 µM	> 25 µM	> 25 µM	> 25 µM	> 25 µM	14 µM
CC(C)c1cc(C(=O)Nc2nc(-c3ccc4c(c3)CCC(=O)N4)cs2)n(C)n1 [Compound 44, 3-isopropyl-1-methyl-N-(4-(2-oxo-1,2,3,4-tetrahydroquinolin-6-yl)thiazol-2-yl)-1H-pyrazole-5-carboxamide]	2 µM	> 25 µM	> 25 µM	> 25 µM	4 µM	> 25 µM	> 25 µM	> 25 µM	> 25 µM	> 25 µM	> 25 µM	> 25 µM	> 25 µM	> 25 µM	> 25 µM
CCn1nc(C2CC2)cc1C(=O)Nc1nc(-c2ccc3c(c2)CCC(=O)N3)cs1 [Compound 45, 3-cyclopropyl-1-ethyl-N-(4-(2-oxo-1,2,3,4-tetrahydroquinolin-6-yl)thiazol-2-yl)-1H-pyrazole-5-carboxamide]	3 µM	> 25 µM	> 25 µM	11 µM	8.8 µM	> 25 µM	> 25 µM	> 25 µM	> 25 µM	> 25 µM	> 25 µM	> 25 µM	> 25 µM	6 µM	> 25 µM
Cc1nc(C)c(C(=O)Nc2nc(-c3ccc4c(c3)CCC(=O)N4Cc3cccnc3)cs2)s1 [Compound 105, 2,4-dimethyl-N-(4-(2-oxo-1-(pyridin-3-ylmethyl)-1,2,3,4-tetrahydroquinolin-6-yl)thiazol-2-yl)thiazole-5-carboxamide]	2 µM	13 µM	> 25 µM	> 25 µM	10.4 µM	> 25 µM	> 25 µM	5 µM	> 25 µM	12 µM	> 25 µM	25 µM	> 25 µM	11 µM	19 µM
Cc1nc(C2CCCCC2)oc1C(=O)Nc1nc(-c2ccc3c(c2)CCC(=O)N3Cc2cccnc2)cs1 [Compound 101, 2-cyclohexyl-4-methyl-N-(4-(2-oxo-1-(pyridin-3-ylmethyl)-1,2,3,4-tetrahydroquinolin-6-yl)thiazole-2-yl)oxazole-5-carboxamide]	4 µM	14 µM	> 25 µM	> 25 µM	9.3 µM	> 25 µM	> 25 µM	18 µM	> 25 µM	2 µM	> 25 µM	4 µM	2 µM	3 µM	14 µM

From patent US10344026B2, “Compositions and methods of targeting mutant K-ras” (NANTBIO, INC., priority 2017, dated 2019)
